# From US12054463B2, “Radiolabeled microtubule imaging compounds and uses thereof” (The Trustees of Columbia University in the City of New York, priority 2017, dated 2024)
# pIC50, pKi: −log10 of the molar value.
# Assays:
# α1A-1C = assay: Affinity to brain targets (panel); format: binding
# Adenosine = assay: Affinity to brain targets (panel); format: binding; conditions: Adenosine (A)
# DOR = DOR (Homo sapiens, UniProt P41143); assay: Affinity to brain targets (panel); format: binding; conditions: DOR: delta opioid receptors
# MOR = MOR (Homo sapiens, UniProt P35372); assay: Affinity to brain targets (panel); format: binding; conditions: MOR: mu opioid receptor
# BZP = assay: Affinity to brain targets (panel); format: binding; conditions: BZP: benzodiazepine
# Sigma1 = Sigma1 (Homo sapiens, UniProt Q99720); assay: Affinity to brain targets (panel); format: binding
# α2A-2C = assay: Affinity to brain targets (panel); format: binding
# NMDA = assay: Affinity to brain targets (panel); format: binding
# D1-D5 = assay: Affinity to brain targets (panel); format: binding
# Smoothened = Smoothened (Homo sapiens, UniProt Q99835); assay: Affinity to brain targets (panel); format: binding
# VMAT = assay: Affinity to brain targets (panel); format: binding; conditions: VMAT (VMAT 1,2): vesicular monoamine transporter
# Ca++ channel = assay: Affinity to brain targets (panel); format: binding
# 5-HT3-7 = assay: Affinity to brain targets (panel); format: binding
# Sigma2 = Sigma2 (Homo sapiens, UniProt Q5BJF2); assay: Affinity to brain targets (panel); format: binding; conditions: Sigma2 (Sigma 2)
# MDR1 = MDR1 (Homo sapiens, UniProt P08183); assay: Affinity to brain targets (panel); format: binding; conditions: MDR1: multidrug resistance
# [1] = references 12-14; cited from earlier work
# I = assay: Affinity to brain targets (panel); format: binding
# NET = NET (Homo sapiens, UniProt P23975); assay: Affinity to brain targets (panel); format: binding; conditions: NET: norepinephrine transporter
# NT = assay: Affinity to brain targets (panel); format: binding; conditions: NT: neurotrophin
# GABA = assay: Affinity to brain targets (panel); format: binding
# H3, H4 = assay: Affinity to brain targets (panel); format: binding; conditions: H3, H4: histamine
# KOR = KOR (Homo sapiens, UniProt P41145); assay: Affinity to brain targets (panel); format: binding; conditions: KOR: kappa opioid receptors
# SERT = SERT (Homo sapiens, UniProt P31645); assay: Affinity to brain targets (panel); format: binding; conditions: SERT: serotonin transporter
# tumor xenografts = conditions: references 12-14; cited from earlier work
# 5-HT1A-1E = assay: Affinity to brain targets (panel); format: binding
# Oxytocin = molecular target: T1, Oxytocin (Homo sapiens, UniProt P30559); assay: Affinity to brain targets (panel); format: binding
# T1 sequence (P30559 1-389): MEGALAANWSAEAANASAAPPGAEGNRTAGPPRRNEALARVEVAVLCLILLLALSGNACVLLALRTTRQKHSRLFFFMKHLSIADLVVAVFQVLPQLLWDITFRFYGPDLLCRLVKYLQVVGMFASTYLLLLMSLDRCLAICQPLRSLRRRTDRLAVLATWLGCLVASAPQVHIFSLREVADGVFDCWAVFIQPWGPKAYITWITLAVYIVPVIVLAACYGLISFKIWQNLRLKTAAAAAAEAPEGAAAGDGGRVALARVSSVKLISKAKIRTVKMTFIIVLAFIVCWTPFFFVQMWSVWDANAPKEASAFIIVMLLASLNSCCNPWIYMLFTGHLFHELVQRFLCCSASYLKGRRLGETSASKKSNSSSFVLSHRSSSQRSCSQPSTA
# β1-3 = assay: Affinity to brain targets (panel); format: binding
# Microtubule = conditions: MT; reference 12; cited from earlier work
# M = assay: Affinity to brain targets (panel); format: binding; conditions: M: muscarinic
# 5-HT2A-2C = assay: Affinity to brain targets (panel); format: binding
# NK = assay: Affinity to brain targets (panel); format: binding; conditions: NK: neurokinin
# AMPA = assay: Affinity to brain targets (panel); format: binding
# H2 = H2 (Homo sapiens, UniProt P25021); assay: Affinity to brain targets (panel); format: binding; conditions: H2: histamine
# KA = assay: Affinity to brain targets (panel); format: binding; conditions: KA (KAR): Kainate
# HERG = HERG (Homo sapiens, UniProt Q12809); assay: Affinity to brain targets (panel); format: binding; conditions: HERG: human ether-a-go-go
# Na+ Channel = assay: Affinity to brain targets (panel); format: binding
# panel of kinases = conditions: cited from earlier work
# PKC = assay: Affinity to brain targets (panel); format: binding; conditions: PKC: Protein kinase C
# H1 = H1 (Homo sapiens, UniProt P35367); assay: Affinity to brain targets (panel); format: binding; conditions: H1: histamine
# DAT = DAT (Homo sapiens, UniProt Q01959); assay: Affinity to brain targets (panel); format: binding; conditions: DAT: dopamine transporters
# NOP = NOP (Homo sapiens, UniProt P41146); assay: Affinity to brain targets (panel); format: binding
# EP = assay: Affinity to brain targets (panel); format: binding; conditions: EP: prostanoid receptors
# MT = conditions: listed under MT; reference 12; cited from earlier work
# mGluR = assay: Affinity to brain targets (panel); format: binding; conditions: mGluR (mGluRs): metabotropic glutamate receptors
# CB1, CB2 = assay: Affinity to brain targets (panel); format: binding
# PBR = PBR (Homo sapiens, UniProt P30536); assay: Affinity to brain targets (panel); format: binding
# D4 = D4 (Homo sapiens, UniProt P21917); assay: Affinity to brain targets (panel); format: binding; conditions: D4: dopamine
# α2C = α2C (Homo sapiens, UniProt P18825); assay: Affinity to brain targets (panel); format: binding
# 5-HT1B = 5-HT1B (Homo sapiens, UniProt P28222); assay: Affinity to brain targets (panel); format: binding
# 5-HT7 = 5-HT7 (Homo sapiens, UniProt P34969); assay: Affinity to brain targets (panel); format: binding
# D5 = D5 (Homo sapiens, UniProt P21918); assay: Affinity to brain targets (panel); format: binding; conditions: D5: dopamine
# CB1 = CB1 (Homo sapiens, UniProt P21554); assay: Affinity to brain targets (panel); format: binding; conditions: CB1: cannabinoid
# β2 = β2 (Homo sapiens, UniProt P07550); assay: Affinity to brain targets (panel); format: binding
# 5-HT3 = 5-HT3 (Homo sapiens, UniProt P46098); assay: Affinity to brain targets (panel); format: binding
# 5-HT2A = 5-HT2A (Homo sapiens, UniProt P28223); assay: Affinity to brain targets (panel); format: binding
# β1 = β1 (Homo sapiens, UniProt P08588); assay: Affinity to brain targets (panel); format: binding
# 5-HT1E = 5-HT1E (Homo sapiens, UniProt P28566); assay: Affinity to brain targets (panel); format: binding
# β3 = β3 (Homo sapiens, UniProt P13945); assay: Affinity to brain targets (panel); format: binding
# variety of brain targets = assay: Affinity for a variety of brain targets; format: binding; conditions: variety of brain targets (Table 1), except H4R
# D3 = D3 (Homo sapiens, UniProt P35462); assay: Affinity to brain targets (panel); format: binding; conditions: D3: dopamine
# microtubules (MTs) = conditions: reference 9; cited from earlier work
# α2A = α2A (Homo sapiens, UniProt P08913); assay: Affinity to brain targets (panel); format: binding
# 5-HT2B = 5-HT2B (Homo sapiens, UniProt P41595); assay: Affinity to brain targets (panel); format: binding
# D1, D2 = assay: Affinity to brain targets (panel); format: binding; conditions: D1, D2: dopamine
# 5-HT1A = 5-HT1A (Homo sapiens, UniProt P08908); assay: Affinity to brain targets (panel); format: binding
# α2B = α2B (Homo sapiens, UniProt P18089); assay: Affinity to brain targets (panel); format: binding
# 5-HT1D = 5-HT1D (Homo sapiens, UniProt P28221); assay: Affinity to brain targets (panel); format: binding
# V1-2 = assay: Affinity to brain targets (panel); format: binding; conditions: V1-2: vasopressin
# 5-HT2C = 5-HT2C (Homo sapiens, UniProt P28335); assay: Affinity to brain targets (panel); format: binding
# CB2 = CB2 (Homo sapiens, UniProt P34972); assay: Affinity to brain targets (panel); format: binding; conditions: CB2: cannabinoid
# Sequence of CB2 (P34972 whole entry, species assumed): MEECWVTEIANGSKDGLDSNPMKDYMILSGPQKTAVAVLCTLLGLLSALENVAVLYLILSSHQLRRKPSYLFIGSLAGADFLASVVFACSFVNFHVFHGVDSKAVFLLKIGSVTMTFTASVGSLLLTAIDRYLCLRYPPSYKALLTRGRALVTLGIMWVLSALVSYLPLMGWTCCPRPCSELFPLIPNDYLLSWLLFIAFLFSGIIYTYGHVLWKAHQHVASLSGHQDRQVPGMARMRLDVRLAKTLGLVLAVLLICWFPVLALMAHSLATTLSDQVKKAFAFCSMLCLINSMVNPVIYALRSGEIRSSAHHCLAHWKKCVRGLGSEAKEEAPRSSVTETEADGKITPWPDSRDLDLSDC
# Sequence of H2 (P25021 whole entry): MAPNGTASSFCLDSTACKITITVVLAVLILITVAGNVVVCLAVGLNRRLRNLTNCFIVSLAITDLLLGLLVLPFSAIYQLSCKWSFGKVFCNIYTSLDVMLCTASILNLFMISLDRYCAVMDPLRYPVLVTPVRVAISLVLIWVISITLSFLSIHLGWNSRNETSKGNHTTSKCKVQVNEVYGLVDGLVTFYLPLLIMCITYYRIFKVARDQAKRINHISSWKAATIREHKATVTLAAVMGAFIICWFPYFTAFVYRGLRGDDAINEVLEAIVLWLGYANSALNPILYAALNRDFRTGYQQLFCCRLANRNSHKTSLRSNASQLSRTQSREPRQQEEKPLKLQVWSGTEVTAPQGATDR
# Sequence of MOR (P35372 whole entry): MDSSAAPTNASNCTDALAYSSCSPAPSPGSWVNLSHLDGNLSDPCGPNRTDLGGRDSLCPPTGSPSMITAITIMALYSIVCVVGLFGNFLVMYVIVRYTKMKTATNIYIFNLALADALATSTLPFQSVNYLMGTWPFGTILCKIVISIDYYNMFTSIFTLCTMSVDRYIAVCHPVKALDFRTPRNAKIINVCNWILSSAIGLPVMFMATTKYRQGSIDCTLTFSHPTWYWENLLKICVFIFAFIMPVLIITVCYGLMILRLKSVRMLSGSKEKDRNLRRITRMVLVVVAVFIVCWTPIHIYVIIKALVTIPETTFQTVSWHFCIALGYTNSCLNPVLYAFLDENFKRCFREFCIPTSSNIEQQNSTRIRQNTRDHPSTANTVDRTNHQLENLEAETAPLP
# Sequence of Sigma1 (Q99720 whole entry): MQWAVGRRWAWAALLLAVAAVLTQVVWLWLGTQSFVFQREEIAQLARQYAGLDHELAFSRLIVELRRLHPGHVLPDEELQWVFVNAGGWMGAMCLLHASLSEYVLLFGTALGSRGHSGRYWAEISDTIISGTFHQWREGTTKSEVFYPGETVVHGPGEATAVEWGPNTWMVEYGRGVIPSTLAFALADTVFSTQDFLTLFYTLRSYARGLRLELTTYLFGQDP
# Sequence of NOP (P41146 whole entry): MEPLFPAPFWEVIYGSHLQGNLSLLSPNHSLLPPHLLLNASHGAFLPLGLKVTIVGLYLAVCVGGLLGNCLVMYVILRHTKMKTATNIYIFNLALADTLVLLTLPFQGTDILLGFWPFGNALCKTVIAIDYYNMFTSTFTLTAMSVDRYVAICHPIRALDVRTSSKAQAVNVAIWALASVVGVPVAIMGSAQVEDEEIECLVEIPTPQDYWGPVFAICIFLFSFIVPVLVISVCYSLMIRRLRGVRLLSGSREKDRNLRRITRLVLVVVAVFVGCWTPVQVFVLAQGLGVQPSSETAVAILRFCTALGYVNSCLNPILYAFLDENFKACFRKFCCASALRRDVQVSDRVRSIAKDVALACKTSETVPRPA
# Sequence of PBR (P30536 whole entry, species assumed): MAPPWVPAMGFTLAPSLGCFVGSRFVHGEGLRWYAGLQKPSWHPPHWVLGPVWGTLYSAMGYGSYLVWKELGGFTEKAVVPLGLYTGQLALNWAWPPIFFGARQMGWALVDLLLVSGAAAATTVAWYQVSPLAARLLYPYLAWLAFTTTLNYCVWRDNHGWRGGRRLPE
# Sequence of Smoothened (Q99835 28-787): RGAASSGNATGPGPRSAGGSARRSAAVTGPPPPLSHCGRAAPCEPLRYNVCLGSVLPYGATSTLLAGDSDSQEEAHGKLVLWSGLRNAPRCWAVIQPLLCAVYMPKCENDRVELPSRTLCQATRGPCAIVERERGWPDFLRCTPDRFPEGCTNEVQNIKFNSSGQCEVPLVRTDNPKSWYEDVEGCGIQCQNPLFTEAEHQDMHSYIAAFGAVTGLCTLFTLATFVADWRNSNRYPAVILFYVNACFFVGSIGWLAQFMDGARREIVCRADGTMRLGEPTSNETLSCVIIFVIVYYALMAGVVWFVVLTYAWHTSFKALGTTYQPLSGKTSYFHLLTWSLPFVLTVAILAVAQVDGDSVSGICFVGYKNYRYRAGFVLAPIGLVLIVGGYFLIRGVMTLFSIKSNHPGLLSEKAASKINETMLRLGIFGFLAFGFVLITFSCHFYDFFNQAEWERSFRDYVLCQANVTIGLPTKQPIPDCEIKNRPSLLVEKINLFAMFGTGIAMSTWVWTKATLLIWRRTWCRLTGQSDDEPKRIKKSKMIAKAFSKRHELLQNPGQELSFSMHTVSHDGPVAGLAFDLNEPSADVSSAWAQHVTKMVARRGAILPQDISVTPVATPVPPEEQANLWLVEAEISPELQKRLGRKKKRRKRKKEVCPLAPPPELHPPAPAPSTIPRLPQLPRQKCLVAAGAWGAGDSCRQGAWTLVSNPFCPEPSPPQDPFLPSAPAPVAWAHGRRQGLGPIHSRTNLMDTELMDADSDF
# Sequence of 5-HT2A (P28223 whole entry): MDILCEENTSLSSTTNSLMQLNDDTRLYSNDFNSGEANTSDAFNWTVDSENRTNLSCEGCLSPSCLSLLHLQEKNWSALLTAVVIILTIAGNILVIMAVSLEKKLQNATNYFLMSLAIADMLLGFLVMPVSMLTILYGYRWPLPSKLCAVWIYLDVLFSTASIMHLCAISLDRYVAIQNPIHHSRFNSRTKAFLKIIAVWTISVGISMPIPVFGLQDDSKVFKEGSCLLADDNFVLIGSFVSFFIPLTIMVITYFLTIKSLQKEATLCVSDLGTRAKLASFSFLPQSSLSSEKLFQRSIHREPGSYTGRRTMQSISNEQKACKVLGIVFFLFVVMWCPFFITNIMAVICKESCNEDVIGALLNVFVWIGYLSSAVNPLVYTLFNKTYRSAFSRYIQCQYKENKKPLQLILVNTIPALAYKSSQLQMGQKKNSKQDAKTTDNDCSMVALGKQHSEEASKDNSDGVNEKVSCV
# Sequence of KOR (P41145 whole entry): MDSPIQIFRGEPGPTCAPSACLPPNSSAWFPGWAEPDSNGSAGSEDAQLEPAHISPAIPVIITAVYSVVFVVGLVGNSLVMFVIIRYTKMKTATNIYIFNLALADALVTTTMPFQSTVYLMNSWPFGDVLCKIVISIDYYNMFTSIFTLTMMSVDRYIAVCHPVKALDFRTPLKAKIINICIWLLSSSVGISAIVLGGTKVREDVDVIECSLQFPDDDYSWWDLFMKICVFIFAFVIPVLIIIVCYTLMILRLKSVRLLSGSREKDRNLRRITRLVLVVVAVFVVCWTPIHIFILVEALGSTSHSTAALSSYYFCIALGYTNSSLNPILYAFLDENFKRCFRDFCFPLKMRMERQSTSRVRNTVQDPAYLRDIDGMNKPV
# Sequence of α2B (P18089 whole entry): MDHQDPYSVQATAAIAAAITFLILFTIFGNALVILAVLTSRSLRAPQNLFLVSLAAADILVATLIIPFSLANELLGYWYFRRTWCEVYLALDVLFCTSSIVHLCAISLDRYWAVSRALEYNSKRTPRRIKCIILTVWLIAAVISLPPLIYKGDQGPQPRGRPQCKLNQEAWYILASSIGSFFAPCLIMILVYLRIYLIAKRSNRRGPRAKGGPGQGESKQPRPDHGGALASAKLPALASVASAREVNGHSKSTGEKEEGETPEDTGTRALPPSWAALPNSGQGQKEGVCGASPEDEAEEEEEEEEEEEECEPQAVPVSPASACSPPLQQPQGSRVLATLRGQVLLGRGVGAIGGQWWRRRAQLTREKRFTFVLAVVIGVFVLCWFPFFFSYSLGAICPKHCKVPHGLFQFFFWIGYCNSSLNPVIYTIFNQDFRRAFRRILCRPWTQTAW
# Sequence of Sigma2 (Q5BJF2 whole entry): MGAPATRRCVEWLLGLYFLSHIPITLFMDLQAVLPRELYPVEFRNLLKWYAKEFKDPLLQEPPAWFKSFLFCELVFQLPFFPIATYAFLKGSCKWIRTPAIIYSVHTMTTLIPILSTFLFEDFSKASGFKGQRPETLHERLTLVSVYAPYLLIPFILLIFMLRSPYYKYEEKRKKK
# Sequence of D4 (P21917 whole entry): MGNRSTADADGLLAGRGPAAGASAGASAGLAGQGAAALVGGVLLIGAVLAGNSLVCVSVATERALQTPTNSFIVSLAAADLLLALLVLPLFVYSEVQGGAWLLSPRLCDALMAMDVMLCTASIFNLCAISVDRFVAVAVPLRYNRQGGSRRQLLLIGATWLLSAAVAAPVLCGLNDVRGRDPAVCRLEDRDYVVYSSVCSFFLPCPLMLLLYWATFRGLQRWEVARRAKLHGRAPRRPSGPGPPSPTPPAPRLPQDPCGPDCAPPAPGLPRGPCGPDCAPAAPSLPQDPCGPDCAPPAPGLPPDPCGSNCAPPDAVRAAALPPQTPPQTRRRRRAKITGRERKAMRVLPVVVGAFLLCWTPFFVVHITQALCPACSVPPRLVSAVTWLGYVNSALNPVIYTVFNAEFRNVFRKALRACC
# Sequence of 5-HT1D (P28221 whole entry, species assumed): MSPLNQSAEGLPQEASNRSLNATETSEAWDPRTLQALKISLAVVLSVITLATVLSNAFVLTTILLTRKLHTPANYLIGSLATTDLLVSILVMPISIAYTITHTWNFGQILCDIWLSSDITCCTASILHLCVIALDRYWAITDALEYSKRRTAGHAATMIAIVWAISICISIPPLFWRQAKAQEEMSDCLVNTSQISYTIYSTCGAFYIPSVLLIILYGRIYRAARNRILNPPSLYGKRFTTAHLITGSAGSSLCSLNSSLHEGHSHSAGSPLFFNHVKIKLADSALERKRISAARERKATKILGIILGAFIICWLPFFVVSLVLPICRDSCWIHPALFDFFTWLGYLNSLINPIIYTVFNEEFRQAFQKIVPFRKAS
smiles,measurement,setting,value
"COc1ccc(N(C)c2ncnc3occ(C)c23)cc1 [HD-800, reference compound]",pKi,α1A-1C,< 5.00
same,pKi,Adenosine,< 5.00
same,pKi,DOR,< 5.00
same,pKi,MOR,< 5.00
same,pKi,BZP,< 5.00
same,pKi,Sigma1,< 5.00
same,pKi,α2A-2C,< 5.00
same,pKi,NMDA,< 5.00
same,pKi,D1-D5,< 5.00
same,pKi,Smoothened,< 5.00
same,pKi,VMAT,< 5.00
same,pKi,Ca++ channel,< 5.00
same,pKi,5-HT3-7,< 5.00
same,pKi,Sigma2,< 5.00
same,pKi,MDR1,< 5.00
same,BBB penetration,[1],BBB penetrant
same,pKi,I,< 5.00
same,pKi,NET,< 5.00
same,pKi,NT,< 5.00
same,pKi,GABA,< 5.00
same,pKi,"H3, H4",< 5.00
same,pKi,KOR,< 5.00
same,pKi,SERT,< 5.00
same,tumor growth inhibition (TGI) compared with paclitaxel,tumor xenografts,higher tumor growth inhibition (TGI) than paclitaxel
same,pKi,5-HT1A-1E,< 5.00
same,pKi,Oxytocin,< 5.00
same,pKi,β1-3,< 5.00
same,pIC50,Microtubule,8.49
same,pKi,M,< 5.00
same,pKi,5-HT2A-2C,< 5.00
same,pKi,NK,< 5.00
same,pKi,AMPA,< 5.00
same,pKi,H2,< 5.00
same,pKi,KA,< 5.00
same,pKi,HERG,< 5.00
same,pKi,Na+ Channel,< 5.00
same,binding to a panel / variety of kinases,panel of kinases,selective
same,pKi,PKC,< 5.00
same,pKi,H1,< 5.00
same,pKi,DAT,< 5.00
same,pKi,NOP,< 5.00
same,pKi,EP,< 5.00
same,GI50,MT,< 0.01 µM
same,pKi,mGluR,< 5.00
same,pKi,"CB1, CB2",< 5.00
same,pKi,PBR,5.63
"COc1ccc(N(C)c2nc(C)nc3ccccc23)cc1 [MPC-6827, N-(4-methoxyphenyl)-N,2-dimethylquinazolin-4-amine]",pKi,α1A-1C,< 5.00
same,pKi,D4,< 5.00
same,pKi,α2C,< 5.00
same,pKi,Adenosine,< 5.00
same,pKi,MOR,5.19
same,pKi,BZP,< 5.00
same,pKi,Sigma1,6.37
same,pKi,5-HT1B,< 5.00
same,pKi,NMDA,< 5.00
same,pKi,5-HT7,< 5.00
same,pKi,D5,< 5.00
same,pKi,CB1,< 5.00
same,pKi,VMAT,< 5.00
same,pKi,β2,< 5.00
same,pKi,Ca++ channel,< 5.00
same,pKi,5-HT3,< 5.00
same,pKi,5-HT2A,< 5.00
same,pKi,β1,< 5.00
same,pKi,5-HT1E,< 5.00
same,pKi,β3,< 5.00
same,pKi,variety of brain targets,< 5.00
same,pKi,D3,< 5.00
same,pKi,I,< 5.00
same,competition at microtubule binding sites,microtubules (MTs),"compete with paclitaxel and colchicine, but not with vinblastine"
same,pKi,NT,< 5.00
same,pKi,GABA,< 5.00
same,pKi,"H3, H4",< 5.00
same,pKi,α2A,< 5.00
same,pKi,5-HT2B,< 5.00
same,pKi,M,< 5.00
same,pKi,NK,< 5.00
same,pKi,AMPA,< 5.00
same,pKi,H2,6.81
same,pKi,KA,< 5.00
same,pKi,Na+ Channel,< 5.00
same,binding to a panel / variety of kinases,panel of kinases,did not show binding
same,pKi,"D1, D2",< 5.00
same,pKi,5-HT1A,< 5.00
same,pKi,PKC,< 5.00
same,pKi,α2B,< 5.00
same,pKi,5-HT1D,< 5.00
same,pKi,V1-2,< 5.00
same,pKi,EP,< 5.00
same,pKi,mGluR,< 5.00
same,pKi,5-HT2C,< 5.00
same,pKi,CB2,< 5.00
